Laboratory results taken from US20090111182A1, “Method for Propagation of Plant” (priority 2005, published 2009).

Experiments:
[1] = test system: embryogenic callus from Double Take; test: Somatic embryo induction in liquid medium (flask), effects of sugar composition and addition of BA; assay type: cell-based, Spathiphyllum (cultivar Double Take); settings: sucrose 0%, sorbitol 3%, fructose 1.1%, BA 0 ppm
Procedure: (§1) MS liquid medium (pH 5.8) containing 1% sucrose, 3% sorbitol, and MES 5 mM was used as basal medium. Proline and glutamic acid were added to the media at the following concentrations. […] The fresh weights the thus induced somatic embryos were measured (Table 1).
Media with compositions listed in Table 2 were prepared (compositions other than those listed in Table 2 were the same as those of the “somatic embryo induction medium.”).

[2] = test system: embryogenic callus of the cultivar Petite; test: Somatic embryo induction in liquid medium (shaken Erlenmeyer flask), effects of proline and glutamic acid; assay type: cell-based, Spathiphyllum (cultivar Petite); settings: 0.05 g callus, 40 ml medium, 6 weeks
Procedure: as §1

O=C(CO)[C@@H](O)[C@H](O)[C@H](O)CO [Fructose, fructose]
Weight of somatic embryo [1]: 3.8 (g)/flask

N[C@@H](CCC(=O)O)C(=O)O [Glutamic acid, glutamic acid]
Amount of embryo collected ([2]; proline 0 mM, glutamic acid 3 mM): 3.5 g/flask

O=C(O)[C@@H]1CCCN1 [Proline, proline]
Amount of embryo collected ([2]; proline 3 mM, glutamic acid 0 mM): 3.4 g/flask
